Reference: ChEMBL document CHEMBL1129028 (J Med Chem, 1996)

How the values were obtained:
[1] = species on record: Cavia porcellus; experiment: Calcium channel antagonist activity against carbachol-induced contractile response in guinea pig ileal longitudinal smooth muscle; type: functional
[2] = test system: Mus musculus; experiment: Anticonvulsant activity in the maximal electroshock (MES) screen test expressed as the number of animals protected to the number of animals tested; MES at 100 mg/kg after 0.5 hrs; (2/2); type: functional
[3] = test system: Mus musculus; experiment: Anticonvulsant activity in the subcutaneous metrazole (scMet) screen test expressed as the number of animals protected to the number of animals tested; scMet at 100 mg/kg after 0.5 hrs; (1/1); type: functional
[4] = test system: Mus musculus; experiment: Anticonvulsant activity in the subcutaneous metrazole (scMet) screen test expressed as the number of animals protected to the number of animals tested; scMet at 100 mg/kg after 4 hrs; (0/1); type: functional
[5] = Partition coefficient; Kp = concentration of test compound in n-octanol/concentration of the test compound in phosphate buffer (pH 7.4); type: physicochemical
[6] = test system: Mus musculus; experiment: Anticonvulsant activity in the subcutaneous metrazole (scMet) screen test expressed as the number of animals protected the number of animals tested; scMet at 300 mg/kg after 0.5 hrs; (0/1); type: functional
[7] = test system: Mus musculus; experiment: Anticonvulsant activity in the maximal electroshock (MES) screen test expressed as the number of animals protected the number of animals tested; MES at 100 mg/kg after 4 hrs; (1/3); type: functional
[8] = test system: Mus musculus; experiment: Anticonvulsant activity in the subcutaneous metrazole (scMet) screen test expressed as the number of animals protected the number of animals tested; scMet at 100 mg/kg after 0.5 hrs; (0/1); type: functional
[9] = test system: Mus musculus; experiment: Anticonvulsant activity in the subcutaneous metrazole (scMet) screen test expressed as the number of animals protected the number of animals tested; scMet at 100 mg/kg after 4 hrs; (0/1); type: functional
[10] = test system: Mus musculus; experiment: Anticonvulsant activity in the maximal electroshock (MES) screen test expressed as the number of animals protected the number of animals tested; MES at 100 mg/kg after 0.5 hrs; (0/3); type: functional
[11] = test system: Mus musculus; experiment: Anticonvulsant activity in the maximal electroshock (MES) screen test expressed as the number of animals protected the number of animals tested; MES at 300 mg/kg after 0.5 hrs; (0/1); type: functional
[12] = test system: Mus musculus; experiment: Anticonvulsant activity in the subcutaneous metrazole (scMet) screen test expressed as the number of animals protected the number of animals tested; scMet at 300 mg/kg after 4 hrs; (0/1); type: functional
[13] = test system: Mus musculus; experiment: Anticonvulsant activity in the maximal electroshock (MES) screen test expressed as the number of animals protected the number of animals tested; MES at 300 mg/kg after 4 hrs; (1/1); type: functional
[14] = test system: Mus musculus; experiment: Anticonvulsant activity in the maximal electroshock (MES) screen test expressed as the number of animals protected / the number of animals tested; MES at 100 mg/kg after 0.5 hrs; (2/3); type: functional
[15] = test system: Mus musculus; experiment: Anticonvulsant activity in the subcutaneous metrazole (scMet) screen test expressed as the number of animals protected / the number of animals tested; scMet at 100 mg/kg after 0.5 hrs; (0/1); type: functional
[16] = test system: Mus musculus; experiment: Anticonvulsant activity in the subcutaneous metrazole (scMet) screen test expressed as the number of animals protected / the number of animals tested; scMet at 100 mg/kg after 4 hrs; (0/1); type: functional
[17] = test system: Mus musculus; experiment: Anticonvulsant activity in the subcutaneous metrazole (scMet) screen test expressed as the number of animals protected/ the number of animals tested; scMet at 300 mg/kg after 0.5 hrs; (0/1); type: functional
[18] = test system: Mus musculus; experiment: Anticonvulsant activity in the maximal electroshock (MES) screen test expressed as the number of animals protected / the number of animals tested; MES at 300 mg/kg after 0.5 hrs; (1/1); type: functional
[19] = test system: Mus musculus; experiment: Anticonvulsant activity in the maximal electroshock (MES) screen test expressed as the number of animals protected / the number of animals tested; MES at 100 mg/kg after 4 hrs; (2/3); type: functional
[20] = test system: Mus musculus; experiment: Anticonvulsant activity in the maximal electroshock (MES) screen test expressed as the number of animals protected to the number of animals tested; MES at 300 mg/kg after 0.5 hrs; (0/1); type: functional
[21] = test system: Mus musculus; experiment: Anticonvulsant activity in the subcutaneous metrazole (scMet) screen test expressed as the number of animals protected to the number of animals tested; scMet at 300 mg/kg; (0/1); type: functional
[22] = test system: Mus musculus; experiment: Anticonvulsant activity in the maximal electroshock (MES) screen test expressed as the number of animals protected to the number of animals tested; MES at 100 mg/kg after 4 hrs; (1/3); type: functional
[23] = test system: Mus musculus; experiment: Anticonvulsant activity in the subcutaneous metrazole (scMet) screen test expressed as the number of animals protected to the number of animals tested; scMet at 100 mg/kg after 0.5 hrs; (0/1); type: functional
[24] = test system: Mus musculus; experiment: Anticonvulsant activity in the maximal electroshock (MES) screen test expressed as the number of animals protected to the number of animals tested; MES at 300 mg/kg after 4 hrs; (1/1); type: functional
[25] = test system: Mus musculus; experiment: Anticonvulsant activity in the maximal electroshock (MES) screen test expressed as the number of animals protected to the number of animals tested; MES at 100 mg/kg after 0.5 hrs; (0/3); type: functional

SMILES: CO/C(O)=C1\C(C)=NC(C)=C(C(=O)OCCO)C1c1cccc(Cl)c1Cl (stereo unspecified)
- IC50 [1]: 30.4 nM
- No. of animals protected / no animals tested [2]: 2
- No. of animals protected / no animals tested [3]: 1
- No. of animals protected / no animals tested [4]: 0
- Kp [5]: 236

SMILES: CO/C(O)=C1\C(C)=NC(C)=C(C(=O)OCCOC(=O)C2=CN(C)C=CC2)C1c1cccc(Cl)c1Cl (stereo unspecified)
- IC50 [1]: 31 nM
- No. of animals protected / no animals tested [6]: 0
- No. of animals protected / no animals tested [7]: 1
- No. of animals protected / no animals tested [8]: 0
- No. of animals protected / no animals tested [9]: 0
- No. of animals protected / no animals tested [10]: 0
- No. of animals protected / no animals tested [11]: 0
- No. of animals protected / no animals tested [12]: 0
- No. of animals protected / no animals tested [13]: 1
- Kp [5]: 366

SMILES: CCOC(=O)C1=C(C)NC(C)=C(C(=O)OC)C1c1cccc(Cl)c1Cl (stereo unspecified) [FELODIPINE]
- No. of animals protected / no animals tested [14]: 2
- No. of animals protected / no animals tested [15]: 0
- No. of animals protected / no animals tested [16]: 0
- No. of animals protected / no animals tested [17]: 0
- No. of animals protected / no animals tested [18]: 1
- No. of animals protected / no animals tested [19]: 2
- Kp [5]: 442

SMILES: COCCOC(=O)C1=C(C)NC(C)=C(C(=O)OC(C)C)C1c1cccc([N+](=O)[O-])c1 (stereo unspecified) [NIMODIPINE]
- No. of animals protected / no animals tested [20]: 0 300mg kg-1
- IC50 [1]: 14.9 nM
- No. of animals protected / no animals tested [21]: 0 300mg kg-1
- No. of animals protected / no animals tested [22]: 1 100mg kg-1
- No. of animals protected / no animals tested [23]: 0 100mg kg-1
- No. of animals protected / no animals tested [24]: 1 300mg kg-1
- No. of animals protected / no animals tested [25]: 0 100mg kg-1
- No. of animals protected / no animals tested [4]: 0 100mg kg-1
- Kp [5]: 187
